In data set [1] the test system is leukemia cell lines MOLT-4 and Jurkat. In words: Cell viability IC50 panel, leukemia cell lines. Type of data set: cell-based. The following applies: Homo sapiens. As to the method: (§1) The plate was installed into the RTCA system, and the electrical impedance (represented as cell index) was measured every 10 min.
Therefore, two leukemia cell lines, MOLT-4 and Jurkat, were included as positive controls in this experiment.

The test system of the next data set is TC-71 ES cells. In words: Cell viability IC50, TC-71. The following applies: for IC50: Homo sapiens; for Fold changes in IC50: TC-71 parental cells, mean ± SD. Type of data set: cell-based, human.
In a further data set the test system is SAOS-2 OS cells. In words: Cell viability IC50, SAOS-2. The following applies: Homo sapiens. Type of data set: cell-based. How it is done:
as §1
To investigate the relationship between the level of CD99 expression and drug sensitivity, the endogenous expression of CD99 was determined in a panel of 9 ES and 13 non-ES cell lines. The recombinant purified CD99-ECD protein was used to generate standard curves for immunoquantification of CD99 expression by immunoblotting (FIGS. 6B and 6C).

Data set [2] relates to ROCK2 expression in RDES, 6647, IOR/CAR and TC-71 ES cells. The data set can be described thus: ROCK2 expression by immunoblot in ES cells. Type of data set: cell-based, human. The following applies: 24 h, vs DMSO-treated control cells. How it is done:
Immunoblot analysis was performed on total cell lysates for ROCK2 and GAPDH expression. In FIG. 8B, TC-71 control and TC-CD99-shRNA #2 cells were treated with either drug at indicated concentrations for 1, 3 and 6 h. Immunoblot analysis was performed on total cell lysates for ROCK2 and GAPDH expression. In FIG. 8C, cell migration experiments were performed using Boyden chamber transwell migration assay with 10% serum serving as the chemoattractant in the lower chamber. […] The number of migrated cells was then quantified by counting the cells in the bottom chamber under the microscope. Asterisks indicate statistically significant differences between treatments (*p<0.05; vs. control using a Student's unpaired t test). […]

A further data set concerns 6647 and TC-71 ES cells. In words: Transwell cell migration assay. Type of data set: cell-based, human. The following applies: 24 h pre-treatment; cladribine 1 or 3 μmol/L, clofarabine 0.3 or 0.5 μmol/L. As to the method:
Immunoblot analysis was performed on total cell lysates for ROCK2 and GAPDH expression. In FIG. 8B, TC-71 control and TC-CD99-shRNA #2 cells were treated with either drug at indicated concentrations for 1, 3 and 6 h. Immunoblot analysis was performed on total cell lysates for ROCK2 and GAPDH expression. In FIG. 8C, cell migration experiments were performed using Boyden chamber transwell migration assay with 10% serum serving as the chemoattractant in the lower chamber. […] The number of migrated cells was then quantified by counting the cells in the bottom chamber under the microscope. Asterisks indicate statistically significant differences between treatments (*p<0.05; vs. control using a Student's unpaired t test).
Motility assay was done using Trans-well chambers (Costar; Corning (Corning, N.Y.)) according to manufacturer's instructions.

For data set [3], the system named is TC-71, 6647 and RDES ES cells. The data set can be described thus: Cell cycle and cell death analysis by flow cytometry, ES cells. The following applies: 48 h; for hypodiploid sub-G1 peak: only in ES cells compared with U-2 OS. The data set is classed as cell-based, human. How it is done:
For the evaluation of cell cycle, cell cultures were incubated with 10 μmol/L bromodeoxyuridine (BrdU) (Sigma-Aldrich) for 1 h in a CO2 atmosphere at 37° C. Harvested cells were fixed in ice-cold 70% ethanol for 30 min. After DNA denaturation with 2 N HCl for 30 min at room temperature, cells were washed with 0.1 M Na2B4O7, pH 8.5 and processed for indirect immunofluorescence staining, using α-BrdU (BD Biosciences (San Jose, Calif.)) diluted 1:4 as a primary MAb and α-mouse FITC (1:100—Thermo Scientific (Waltham, Mass.)) as a secondary antibody. After treatment with 0.5 mg/ml RNase and staining with 20 μg/ml propidium iodide, cells were and analyzed by flow cytometry (FACSCalibur; Becton Dickinson (Franklin Lakes, N.J.)) for cell cycle evaluation and for assessing cell death by DNA content analysis.
For orientation: In flow cytometry, cells or beads pass a laser one at a time.

The mark [4] stands for this setting: 48 h, read-out: average IC50 concentration for leukemia cell lines.
The mark [5] stands for this setting: MOLT-4 and Jurkat, read-out: IC50, leukemia cell lines.

Each structure is given as a SMILES string. Like-named read-outs stand apart in the source and are kept apart here.

As to `Nc1nc(Cl)nc2c1ncn2[C@H]1C[C@H](O)[C@@H](CO)O1` [cladribine], the IC50 in data set [1] (setting [4]) was 340 ± 30 nM; in data set [1] (setting [5]), less than 1000 nM; in the data set on TC-71 ES cells (TC-71 (ES), Table 1), 500 nM; in the data set with SAOS-2 OS cells, greater than 30 µM. In addition, the “Fold changes in IC50” value in the data set with TC-71 ES cells is recorded as 1.02 ± 0.27 (n = 5). Moreover, the ROCK2 expression result in data set [2] is given as “notable decrease”. In the data set with 6647 and TC-71 ES cells, the “number of migrated cells” value is “significantly decreased”. In addition, in data set [3] (ES cells), the cell cycle effect entry was “cell cycle arrest in S phase”. In data set [3], the “hypodiploid sub-G1 peak” value is “significant increase”. For the same compound, the total body weight entry (mouse, in vivo) is listed as “does not change”.
For `Nc1nc(Cl)nc2c1ncn2[C@@H]1O[C@H](CO)[C@@H](O)[C@@H]1F` [clofarabine], the IC50 in data set [1] (setting [4]) was 180 ± 10 nM; in data set [1] (setting [5]) it was less than 1000 nM; with TC-71 ES cells (TC-71 (ES), Table 1) it was 150 nM; in the data set with TC-71 ES cells (TC-71 cells, WST-1, 48 h (FIG. 10B)), 150 nM; in the data set on SAOS-2 OS cells, greater than 30 µM. Also, the “Fold changes in IC50” value with TC-71 ES cells is reported as 1.10 ± 0.38 (n = 8). In data set [2], the ROCK2 expression entry is reported as “notable decrease”. For the same compound, in the data set with 6647 and TC-71 ES cells, the “number of migrated cells” value is listed as “significantly decreased”. The “hypodiploid sub-G1 peak” value in data set [3] is listed as “significant increase”. The tolerability result (TC-71 and SKES xenograft models, clofarabine 30 mg/kg in TC-71) is on record as “early deaths”. In addition, the total body weight entry (weighed daily during treatment) is recorded as “does not change”.

(Values after patent US11202792B2, “CD99 inhibitors and their uses” (GEORGETOWN UNIVERSITY, priority 2016, dated 2021).)
